What was measured:
[1] = biological target: vasopressin V1 receptor (rat liver plasma membranes) (Rattus norvegicus, UniProt P30560); experiment: Binding Assay to Rat Hepatic V1 Receptors; conditions: for IC50: rat hepatic V1
[2] = biological target: T1, oxytocin receptors (rat uterus membranes) (Rattus norvegicus, UniProt P70536); experiment: Oxytocin Receptor Binding; set-up: species or system female Sprague-Dawley rats
T1 construct: The resulting pellet containing the oxytocin receptors is resuspended; from tissue; host or cells: uterus membranes of DES-treated female Sprague-Dawley rats
T1 sequence (P70536 1-388): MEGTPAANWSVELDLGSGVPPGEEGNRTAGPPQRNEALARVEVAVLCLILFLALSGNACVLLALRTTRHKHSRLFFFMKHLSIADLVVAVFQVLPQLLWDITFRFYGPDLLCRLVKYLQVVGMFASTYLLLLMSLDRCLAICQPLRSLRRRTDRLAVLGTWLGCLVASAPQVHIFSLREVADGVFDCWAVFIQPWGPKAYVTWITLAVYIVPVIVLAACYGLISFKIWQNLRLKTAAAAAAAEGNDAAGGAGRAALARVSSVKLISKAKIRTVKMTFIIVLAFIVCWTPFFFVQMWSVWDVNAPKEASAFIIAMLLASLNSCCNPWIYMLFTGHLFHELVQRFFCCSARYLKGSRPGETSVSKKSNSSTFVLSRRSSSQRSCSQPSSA
Description: Female Sprague-Dawley rats weighing approximately 200-250 g are injected intramuscularly (i.m.) with 0.3 mg/kg of body weight of diethylstilbestrol (DES). The rats are sacrificed 18 hours later under pentobarbital anesthesia. The uteri are dissected out, cleaned of fat and connective tissues and rinsed in 50 ml of normal saline. The tissue pooled from six rats is homogenized in 50 ml of […] Tris.HCl, containing 0.5 mM dithiothreitol and 1.0 mM EDTA, adjusted to pH 7.4, using a polytron at setting 6 with three passes of 10 sec each. The homogenate is passed through two (2) layers of cheesecloth and the filtrate centrifuged at 1000×g for 10 min. The clear supernatant is removed and recentrifuged at 165,000×g for 30 min. The resulting pellet containing the oxytocin receptors is resuspended in 50.0 mM Tris.HCl containing 5.0 mM MgCl2 at pH 7.4, to give a protein concentration of 2.5 mg/ml of tissue suspension. This preparation is used in subsequent binding assays with [^3 H]Oxytocin.
Binding of 3,5-[^3 H]Oxytocin ([^3 H]OT) to its receptors is done in microtiter plates using [^3 H]OT, at various concentrations, in an assay buffer of 50.0 mM Tris.HCl, pH 7.4 and containing 5.0 mM MgCl2, and a mixture of protease inhibitors: BSA, 0.1 mg; aprotinin, 1.0 mg; 1,10-phenanthroline, 2.0 mg; […], 10.0 mg; and PMSF, 0.3 mg per 100 ml of buffer solution. Non-specific binding is determined in the presence of 1.0 uM unlabeled OT. The binding reaction is terminated after 60 min., at 22° C., by rapid filtration through glass fiber filters using a Brandel® cell harvester (Biomedical Research and Development Laboratories, Inc., Gaithersburg, Md.). Competition experiments are conducted at equilibrium using 1.0 nM [^3 H]OT and varying the concentration of the displacing agents. The concentrations of agent displacing 50% of [^3 H]OT at its sites (IC50) are calculated by a computer assisted LUNDON-2 program (LUNDON SOFTWARE INC., Ohio, USA).

Chain of vasopressin V1 receptor (rat liver plasma membranes) (P30560 whole entry): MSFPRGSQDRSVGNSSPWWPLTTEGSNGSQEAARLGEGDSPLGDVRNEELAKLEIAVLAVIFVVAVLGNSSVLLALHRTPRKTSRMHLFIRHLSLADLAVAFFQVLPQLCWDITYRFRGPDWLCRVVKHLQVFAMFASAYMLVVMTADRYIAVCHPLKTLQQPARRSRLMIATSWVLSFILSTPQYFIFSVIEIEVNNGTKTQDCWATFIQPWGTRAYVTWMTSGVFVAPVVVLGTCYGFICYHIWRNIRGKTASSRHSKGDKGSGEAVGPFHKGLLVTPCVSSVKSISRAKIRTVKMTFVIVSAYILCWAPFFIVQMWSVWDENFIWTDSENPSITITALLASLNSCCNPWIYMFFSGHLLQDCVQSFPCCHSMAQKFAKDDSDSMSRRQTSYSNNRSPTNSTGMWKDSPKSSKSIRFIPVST

| IC50 [1] | inhibition at 10 µM [2] | IC50 ([2]; first part of Table V) | inhibition at 10 µM ([1]; 2 h, 10 μM, rat hepatic, read-out: V1, % at concentration in brackets) | IC50 ([2]; second part of Table V) | Compound |
| --- | --- | --- | --- | --- | --- |
| 150 nM | 73% | 2900 nM | – | – | Cc1ccccc1C(=O)Nc1ccc(C(=O)N2Cc3ccccc3Cc3ccccc32)cc1 [Example 2, N-[4-[(6,11-Dihydro-5H-dibenz[b,e]azepin-5-yl)carbonyl]phenyl]-2-methylbenzamide] |
| 56 nM | 90% | 2000 nM | – | – | Cc1ccccc1C(=O)Nc1ccc(C(=O)N2Cc3ccccc3-c3ccccc32)cc1 [Example 5, 2-Methyl-N-[4-[(5(6H)-phenanthridinyl)carbonyl]phenyl]benzamide] |
| 1500 nM | 77% | – | – | – | O=C(Nc1ccc(C(=O)N2Cc3ccccc3Cc3ccccc32)cc1)c1cc(Cl)cc(Cl)c1 [Example 251, N-(4-[(6,11-Dihydro-5H-dibenz[b,e]azepin-5-yl)-carbonyl]phenyl]-3,5-dichlorobenzamide] |
| 310 nM | 77% | 3100 nM | – | – | O=C(Nc1ccc(C(=O)N2Cc3ccccc3Cc3ccccc32)cc1)c1cccc(Cl)c1Cl [Example 253, N-[4-[(6,11-Dihydro-5H-dibenz[b,e]azepin-5-yl)-carbonyl]phenyl]-2,3-dichlorobenzamide] |
| 27 nM | 99% | 460 nM | – | – | O=C(Nc1ccc(C(=O)N2Cc3ccccc3Cc3ccccc32)cc1)C1CC=CCC1 (stereo not shown) [Example 255, N-[4-[(6,11-Dihydro-5H-dibenz[b,e]azepin-5-yl)-carbonyl]phenyl]-3-cyclohexene-1-carboxamide] |
| – | 97% | 189 nM | – | – | COc1cc(C(=O)N2Cc3ccccc3Cc3ccccc32)ccc1NC(=O)c1ccccc1C [Example 257, N-[4-[(6,11-Dihydro-5H-dibenz[b,e]azepin-5-yl)-carbonyl]-2-methoxyphenyl]-2-methylbenzamide] |
| – | 18% | – | 75% | – | Cc1ccccc1C(=O)Nc1c(C)cc(C(=O)N2Cc3ccccc3Cc3ccccc32)cc1C [Example 258, N-[4-[(6,11-Dihydro-5H-dibenz[b,e]azepin-5-yl)-carbonyl]-2,6-dimethylphenyl]-2-methylbenzamide] |
| 4000 nM | 7% | – | – | – | Cc1cc(C(=O)N2Cc3ccccc3Cc3ccccc32)cc(C)c1NC(=O)c1ccc(Cl)cc1Cl [Example 259, N-[4-[(6,11-Dihydro-5H-dibenz[b,e]azepin-5-yl)-carbonyl]-2,6-dimethylphenyl]-2 4-dichlorobenzamide] |
| 120 nM | 44% | – | – | – | Cc1ccccc1C(=O)Nc1ccc(C(=O)N2Cc3ccccc3Cc3ccccc32)c(Cl)c1 [Example 260, N-[4-[(6,11-Dihydro-5H-dibenz[b,e]azepin-5-yl)-carbonyl]-3-chlorophenyl]-2-methylbenzamide] |
| – | 97% | 210 nM | – | – | COc1cc(C(=O)N2Cc3ccccc3Cc3ccccc32)ccc1NC(=O)c1cc(F)ccc1C [Example 261, N-[4-[(6,11-Dihydro-5H-dibenz[b,e]azepin-5-yl)-carbonyl]-2-methoxyphenyl]-2-methyl-5-fluorobenzamide] |
| – | 55% | 6200 nM | – | – | Cc1c(F)cccc1C(=O)Nc1ccc(C(=O)N2Cc3ccccc3Cc3ccccc32)cc1Cl [Example 262, N-[4-[(6,11-Dihydro-5H-dibenz[b,e]azepin-5-yl)-carbonyl]-2-chlorophenyl]-2-methyl-3-fluorobenzamide] |
| – | 94% | 260 nM | – | – | COc1cc(C(=O)N2Cc3ccccc3Cc3ccccc32)ccc1NC(=O)c1ccc(Cl)cc1Cl [Example 263, N-[4-[(6,11-Dihydro-5H-dibenz[b,e]azepin-5-yl)-carbonyl]-2-methoxyphenyl]-2,4-dichlorobenzamide] |
| 26 nM | 89% | 1100 nM | – | – | Cc1ccccc1C(=O)N(CN(C)C)c1ccc(C(=O)N2Cc3ccccc3Cc3ccccc32)cc1 [Example 267, N-[4-[(6,11-Dihydro-5H-dibenz[b,e]azepin-5-yl)-carbonyl]phenyl]-N-[(dimethylamino)methyl]-2-methylbenzamide] |
| 250 nM | 96% | 810 nM | – | – | Cc1ccccc1C(=O)Nc1ccc(C(=O)N2CCc3cn(C)nc3-c3ccccc32)cc1 [Example 379, N-[4-[(4,5-Dihydro-2-methylpyrazolo[4,3-d][1]-benzazepin-6(2H)-yl)carbonyl]phenyl]-2-methylbenzamide] |
| 34500 nM | 19% | – | – | – | Cc1ncc2c(n1)-c1ccccc1N(C(=O)c1ccc(NC(=O)c3ccccc3C)cc1)CC2 [Example 416, N-[4-[(6,7-Dihydro-2-methyl-5H-pyrimido[5,4-d][1]-benzazepin-7-yl)carbonyl]phenyl]-2-methylbenzamide] |
| 73 nM | 39% | – | – | – | O=C(Nc1ccc(C(=O)N2Cc3ccccc3Sc3ccccc32)cc1)c1ccccc1Cl [Example 448, N-[4-[(Dibenz[b,f][1,4]thiazepin-10(11H)yl)-carbonyl]phenyl]-2-chlorobenzamide] |
| – | – | – | – | 3300 nM | CC(C)COc1ccc([N+](=O)[O-])cc1C(=O)Nc1ccc(C(=O)N2Cc3ccccc3Cc3ccccc32)cc1 [Example 453] |
| – | 88% | – | – | 1100 nM | Cc1nc2c(s1)CCN(C(=O)c1ccc(NC(=O)c3ccc(Cl)cc3Cl)cc1)c1ccccc1-2 [Example 455, N-[4-(4,5-Dihydro-2-methyl-6H-thiazolo[5,4-d][1]-benzazepin-6-yl)carbonyl1phenyl]-2,4-dichlorobenzamide] |
| – | 86% | – | – | 940 nM | Cc1nc2c(s1)CCN(C(=O)c1ccc(NC(=O)c3cc(F)ccc3C)cc1)c1ccccc1-2 [Example 534] |
| 740 nM | 95% | – | – | 475 nM | Cc1ccc(F)cc1C(=O)Nc1ccc(C(=O)N2CCc3c[nH]nc3-c3ccccc32)c(Cl)c1 [Example 581] |
| 39 nM | 100% | – | – | 170 nM | Cc1ccc(F)cc1C(=O)Nc1ccc(C(=O)N2CCc3c[nH]nc3-c3ccccc32)cc1 [Example 584, N-[4-[(4.5-Dihydropyrazolo[4,3-d][1]benzazepin-6(2H)-yl)carbonyl]phenyl]-5-fluoro-2-methylbenzamide] |
